# In patent US20110217300A1, “Quinazolinone Compounds and Methods of Use Thereof” (priority 2007, published 2011):
# What was measured:
# Assay in all cases: MTS cell viability assay
# Type in all cases: cell-based
# [1] = tested on: THP-1; conditions: Homo sapiens, Acute monocytic leukemia
# Procedure: (§1) Cell viability was determined by measuring the activity of dehydrogenase enzymes in metabolically active cells using a tetrazolium compound, MTS. The assay was performed as described in Promega Technical Bulletin No. 169 (CellTiter 96 Aqueous Non-Radioactive Cell Proliferation Assay). Two human cancer cell lines were assayed (see, Table 1). Cells were maintained at 37° C. and 5% CO2 in DMEM media (4.5 g/L glucose) supplemented with 10% heat-inactivated FBS, 10 mM L-glutamine, and 10 mM Hepes pH 7.5. Briefly, cells were seeded in 96-well plates as set forth in Table 1 and incubated for 16-24 hours. Candidate compounds were serially diluted in DMSO, further diluted in cell culture media, and then added to cells (final DMSO concentration of 0.33%). Cells were incubated in the presence of candidate compound for 72 hours. MTS stock solution (MTS 2 gm/L, PMS […] in PBS) was added to the cells (final concentration MTS […] and PMS 7.67 mg/L) and incubated for 4 hours. SDS was added to a final concentration of 1.4% and absorbance at 490 nm was measured within two hours using a plate reader. […] GI50 values were given in Table 2 for the compounds listed. The Compound Numbers in Table 2 correspond to the numbers listed parenthetically in the Example titles. Where multiple measurements were made by different technicians, both values are given.
# (§2) Cell viability was determined for N-(3-amino-propyl)-3-chloro-N—[(R)-1-(7-chloro-4-oxo-3-phenylamino-3,4-dihydro-quinazolin-2-yl)-but-3-ynyl]-2-fluoro-benzamide (compound I of Table 2). The cell viability assay of Example 105 was used. GI50 was determined using a variety of cell lines. Cells were plated at 100-5000 cells per well. At least 2 replicates were performed. Where multiple measurements were made by different technicians, both values are given.
# [2] = tested on: ASPC-1; conditions: Homo sapiens, ASPC1, pancreas
# Procedure: as §1, §2
# [3] = tested on: MCF-7; conditions: breast
# Procedure: as §1, §2
# [4] = tested on: BDCM; conditions: Lymphoblast
# Procedure: as §1, §2
# [5] = tested on: CAKI-2; conditions: Homo sapiens, kidney
# Procedure: as §1, §2
# [6] = tested on: HEC1A; conditions: Homo sapiens, HEC-1-A, endometrial
# Procedure: as §1, §2
# [7] = tested on: NCI-H358; conditions: Homo sapiens, Non-small cell lung cancer, brancioalveolar carcinoma
# Procedure: as §1, §2
# [8] = tested on: SW780; conditions: Homo sapiens, bladder
# Procedure: as §1, §2
# [9] = tested on: A375; conditions: skin
# Procedure: as §1, §2
# [10] = tested on: NCI-H441; conditions: Lung Papillary Adenocarcinoma
# Procedure: as §1, §2
# [11] = tested on: LoVo; conditions: Homo sapiens, Colorectal Carcinoma
# Procedure: as §1, §2
# [12] = tested on: 786-O; conditions: Homo sapiens, 786-0, kidney
# Procedure: as §1, §2
# [13] = tested on: MDA-MB-231; conditions: Breast adenocarcinoma
# Procedure: as §1, §2
# [14] = tested on: PLC/PRF/5; conditions: Homo sapiens, liver
# Procedure: as §1, §2
# [15] = tested on: LS174T; conditions: Homo sapiens, Colorectal Carcinoma
# Procedure: as §1, §2
# [16] = tested on: CCS292; conditions: Clear cell Sarcoma
# Procedure: as §1, §2
# [17] = tested on: HCT-116; conditions: Homo sapiens, colon
# Procedure: as §1, §2
# [18] = tested on: KG-1; conditions: Homo sapiens, AML
# Procedure: as §1, §2
# [19] = tested on: PANC-1; conditions: Homo sapiens, Pancreas epithelioid carcinoma
# Procedure: as §1, §2
# [20] = tested on: SK-HEP-1; conditions: Homo sapiens, SK-HEP1, Liver adenocarcinoma
# Procedure: as §1, §2
# [21] = tested on: SNU-16; conditions: Homo sapiens, Gastric Carcinoma
# Procedure: as §1, §2
# [22] = tested on: RKO; conditions: Homo sapiens, Colon Carcinoma
# Procedure: as §1, §2
# [23] = tested on: Kato III; conditions: Homo sapiens, Gastric Carcinoma
# Procedure: as §1, §2
# [24] = tested on: NCI-H661; conditions: Homo sapiens, Large cell Lung Cancer
# Procedure: as §1, §2
# [25] = tested on: SW480; conditions: colon
# Procedure: as §1, §2
# [26] = tested on: MIA-PaCa2; conditions: Homo sapiens, MIA PaCa-2, Pancreas
# Procedure: as §1, §2
# [27] = tested on: U937; conditions: Homo sapiens, U-937, Monocyte Histocytic Lymphoma
# Procedure: as §1, §2
# [28] = tested on: HEP-3B; conditions: Homo sapiens, Hep3B, liver
# Procedure: as §1, §2
# [29] = tested on: SKMES-1; conditions: Homo sapiens, SK-MES-1, Squamous cell carcinoma
# Procedure: as §1, §2
# [30] = tested on: CFPPAC-1; conditions: Pancreasductal adenocarcinoma, cystic fibrosis
# Procedure: as §1, §2
# [31] = tested on: SK-LMS-1; conditions: Leiomyosarcoma
# Procedure: as §1, §2
# [32] = tested on: A-375; conditions: Homo sapiens, Malignant melanoma
# Procedure: as §1, §2
# [33] = tested on: HCT-15; conditions: Homo sapiens, colon
# Procedure: as §1, §2
structure (smiles),measurement,setting,value
"C#CC[C@H](c1nc2cc(Cl)ccc2c(=O)n1Nc1ccccc1)N(CCCN)C(=O)c1cccc(Cl)c1F [Compound 1, N-(3-Amino-propyl)-3-chloro-N—[(R)-1-(7-chloro-4-oxo-3-phenylamino-3,4-dihydro-quinazolin-2-yl)-but-3-ynyl]-2-fluoro-benzamide]",GI50,[1],226 nM
same,GI50,[2],549 nM
same,GI50,"[3]; Homo sapiens, MCF7, MCF-7",5.08 µM
same,GI50,"[3]; MCF-7, listed as I",4.83 µM
same,GI50,[4],207 nM
same,GI50,[5],4.24 µM
same,GI50,[6],316 nM
same,GI50,[7],190 nM
same,GI50,[8],220 nM
same,GI50,"[9]; A375, listed as I",752 nM
same,GI50,"[9]; Homo sapiens, A-375, A375",405 nM
same,GI50,"[10]; Homo sapiens, NCI-H441, NCI-H441",3340 nM
same,GI50,"[10]; NCI-H441, listed as I",2250 nM
same,GI50,[11],359 nM
same,GI50,[12],1740 nM
same,GI50,"[13]; Homo sapiens, MDA-MB-231, MDA-MB-231",359 nM
same,GI50,"[13]; MDA-MB-231, listed as I",249 nM
same,GI50,[14],135 nM
same,GI50,[15],796 nM
same,GI50,[16],833 nM
same,GI50,[17],74 nM
same,GI50,[18],1720 nM
same,GI50,[19],1170 nM
same,GI50,[20],319 nM
same,GI50,[21],136 nM
same,GI50,[22],110 nM
same,GI50,[23],202 nM
same,GI50,[24],109 nM
same,GI50,"[25]; Homo sapiens, SW480, SW480",1270 nM
same,GI50,"[25]; SW480, listed as I",1220 nM
same,GI50,[26],259 nM
same,GI50,[27],155 nM
same,GI50,[28],773 nM
same,GI50,[29],1000 nM
same,GI50,[30],2080 nM
same,GI50,[31],2210 nM
same,GI50,[32],766 nM
same,GI50,[33],3.02 µM
